Results: the NIST ThermoML archive (doi:10.1021/je500271z)
Numbers after ± are expanded uncertainties.

Assay: osmotic coefficient (dimensionless); mn = molality of the nth substance listed, in mol/kg
Conditions: 298.15 K, Liquid, vapor pressure osmometry

osmotic coefficient (m1 = 0.2485): 0.95 ± 0.02
osmotic coefficient (m1 = 0.5058): 0.922 ± 0.02
osmotic coefficient (m1 = 1.993): 0.976 ± 0.02
SMILES: [Cl-].[Na+] [sodium chloride] + O
